Assay results published in paper PMC8837781, “Suppression of tumor metastasis by a RECK-activating small molecule” (Scientific Reports, 2022).

How the values were obtained:
HDAC1 [1] = biological target: T1, HDAC1 (Homo sapiens, UniProt Q13547); assay: HDAC1 inhibition assay (details not given); format: biochemical
HDAC3 [2] = biological target: T2, HDAC3 (Homo sapiens, UniProt O15379); assay: HDAC3 inhibition assay (details not given); format: biochemical
HDAC1 [3] = biological target: T1, HDAC1; assay: biochemical; parameters: HDAC inhibition assay, IC50; conditions: read-out: HDAC inhibition (HDAC1)
HDAC3 [4] = biological target: T2, HDAC3; assay: biochemical; parameters: HDAC inhibition assay, IC50; conditions: read-out: HDAC inhibition (HDAC3)

T1 sequence (Q13547 whole entry): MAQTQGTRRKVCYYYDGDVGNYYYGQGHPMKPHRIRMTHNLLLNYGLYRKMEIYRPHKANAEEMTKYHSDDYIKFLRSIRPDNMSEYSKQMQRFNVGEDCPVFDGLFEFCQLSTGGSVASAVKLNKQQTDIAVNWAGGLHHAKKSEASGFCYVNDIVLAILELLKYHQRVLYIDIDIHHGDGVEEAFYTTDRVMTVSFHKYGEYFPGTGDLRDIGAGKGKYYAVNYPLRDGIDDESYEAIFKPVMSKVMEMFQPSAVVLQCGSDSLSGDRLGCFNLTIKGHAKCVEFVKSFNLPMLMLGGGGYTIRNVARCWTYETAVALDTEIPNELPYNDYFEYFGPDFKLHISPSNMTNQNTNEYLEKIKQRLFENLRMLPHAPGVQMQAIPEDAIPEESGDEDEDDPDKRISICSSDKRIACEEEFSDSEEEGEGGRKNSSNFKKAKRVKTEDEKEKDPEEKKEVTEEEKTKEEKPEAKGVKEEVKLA
T2 sequence (O15379 whole entry): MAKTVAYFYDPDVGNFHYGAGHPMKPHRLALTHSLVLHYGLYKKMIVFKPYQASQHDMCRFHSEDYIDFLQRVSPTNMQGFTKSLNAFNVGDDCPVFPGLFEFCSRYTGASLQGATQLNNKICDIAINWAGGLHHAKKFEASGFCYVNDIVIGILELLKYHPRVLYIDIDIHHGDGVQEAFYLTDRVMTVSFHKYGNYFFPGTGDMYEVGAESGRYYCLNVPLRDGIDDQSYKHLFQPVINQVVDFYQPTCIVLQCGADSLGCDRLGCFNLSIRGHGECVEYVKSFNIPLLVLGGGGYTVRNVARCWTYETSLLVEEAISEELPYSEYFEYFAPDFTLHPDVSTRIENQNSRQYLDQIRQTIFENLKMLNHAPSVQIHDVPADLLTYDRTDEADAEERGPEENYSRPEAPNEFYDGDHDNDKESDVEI

SMILES | IC50 (HDAC1 [1]) [µM] | IC50 (HDAC3 [2]) [µM] | IC50 (HDAC1 [3]) [µM] | IC50 (HDAC3 [4]) [µM]
Nc1ccccc1NC(=O)c1ccccc1 [NAPB] | – | – | 8 | 5
Cc1ccc(NC(=O)c2ccccc2N)cc1 [NTAB] | – | – | > 100 | > 100

Other lines, results leading:

IC50 (HDAC1 [1]) [µM] | IC50 (HDAC3 [2]) [µM] | IC50 (HDAC1 [3]) [µM] | IC50 (HDAC3 [4]) [µM] | SMILES
~5 | ~10 | – | – | Cc1ccc(C(=O)Nc2ccccc2N)cc1 [#638, DSK638]
– | – | 3 | 3 | Cc1ccc(C(=O)Nc2ccccc2O)cc1 [NHPMB]
– | – | > 100 | > 100 | Cc1ccc(C(=O)Nc2ccccc2)cc1 [NPMB]
